Results published in PMC5826112, “Intrapulmonary Pharmacokinetics of Relebactam, a Novel β-Lactamase Inhibitor, Dosed in Combination with Imipenem-Cilastatin in Healthy Subjects” (Antimicrobial Agents and Chemotherapy, 2018).
“Also recorded” adds a separate entry of the source. Read-outs that look alike come from different tables or passages of the source. Values belong to the molecule of their own block, whether it stands above or below them.

How the values were obtained:
[1] = design: method as in PMID 7831630; settings: orally administered amoxicillin-clavulanate; cited from earlier work
[2] = healthy adults, ceftolozane-tazobactam; cited from earlier work
[3] = design: method as in PMID 17039351; settings: multiple-dose, adult patients with ventilator-associated pneumonia; cited from earlier work
[4] = design: method as in PMID 26349830; settings: healthy adults, meropenem-RPX7009; cited from earlier work
[5] = Intrapulmonary (ELF, AC) and plasma pharmacokinetics after multiple-dose IV relebactam with imipenem-cilastatin, bronchoscopy/BAL, noncompartmental analysis; format: in vivo, human (healthy subjects); settings: for t1/2 (terminal half-life) / half-life / AUC(0-inf) / Cmax / Tmax / AUC(0-t): mean profile; for half-life: read-out: t1/2 (terminal half-life) (converted); for AUC(0-inf): noncompartmental analysis; for AUC(0-t): read-out: AUC0–3; for concentrations in AC (alveolar cells): result in words
Procedure: Dosing and administration of imipenem-cilastatin were carried out in a manner consistent with the recommended labeled posology. BAL fluid specimens were obtained during bronchoscopy for the determination of the relebactam and imipenem concentrations in the ELF and AC. Four aliquots of normal saline (50 ml each) were sequentially instilled and aspirated after each instillation. The first aspirate was discarded, and the remaining aspirates were pooled and used to obtain urea and drug level measurements. Aliquots were obtained for cell count/differential, and the remainder of the pooled aspirates was centrifuged. The liquid aspirate and cell pellet were separated and stored at −70°C. The supernatant was sent for urea and drug level measurements. Blood samples were collected prior to the first and fifth doses of study drug for the determination of relebactam and imipenem plasma concentrations. Blood samples were also collected during the bronchoscopy/BAL procedure for the determination of relebactam, imipenem, and urea concentrations. Relebactam and imipenem levels in plasma, pulmonary ELF, and AC were measured simultaneously via acetonitrile protein precipitation and hydrophilic interaction liquid chromatography (HILIC) with detection via liquid chromatography-tandem mass spectrometry (LC-MS/MS). The system consisted of a Waters Acquity ultraperformance liquid chromatograph (Waters Corp., Milford, MA) and an API 4000 or 5000 triple-quadrupole tandem mass spectrometer (Sciex, Framingham, MA) equipped with a turbo-ion spray interface and operated in the positive ionization mode. The multiple reaction monitoring (MRM) transitions monitored were m/z 349 → 269 for relebactam, m/z 300 → 98 for imipenem, and m/z 354 → 274 and m/z 307 → 98 for their respective internal standards. […] The ELF volumes recovered by BAL were determined by using urea as an endogenous marker to provide a dilution ratio by measurement of urea concentrations in the BAL fluid and serum ([33]). […] The mean value for each time point was used to conduct the noncompartmental analysis using Phoenix (version 6.3) software (Pharsight Corporation, Mountain View, CA) and to calculate the values of the PK parameters on the basis of the mean profile in each matrix.

[6] = no reference given; cited from earlier work
[7] = critically ill patients, multiple doses of piperacillin-tazobactam; cited from earlier work
[8] = design: method as in PMID 21300830; settings: patients with ventilator-associated pneumonia; cited from earlier work
[9] = both sexes, human, intravenous, ELF, same regimen
[10] = both sexes, human, intravenous, plasma, same regimen

Structure (SMILES): CC1(C)S[C@@H]2[C@H](NC(=O)[C@H](N)c3ccc(O)cc3)C(=O)N2[C@H]1C(=O)O [amoxicillin]
concentrations in ELF relative to those in plasma [1]: less than 20%

Structure (SMILES): Cn1c(N)c(NC(=O)NCCN)c[n+]1CC1=C(C(=O)O)N2C(=O)[C@@H](NC(=O)/C(=N\OC(C)(C)C(=O)[O-])c3nsc(N)n3)[C@H]2SC1 [ceftolozane]
ELF/plasma AUC ratio [2]: 48%

Structure (SMILES): C[C@@H](O)[C@H]1C(=O)N2C(C(=O)O)=C(S[C@@H]3CN[C@H](C(=O)Nc4cccc(C(=O)O)c4)C3)[C@H](C)[C@H]12 [ertapenem]
ratios of ELF concentrations to total plasma concentrations, median [3]: 0.32

Structure (SMILES): O=C(O)C[C@@H]1CC[C@H](NC(=O)Cc2cccs2)B(O)O1 [RPX7009]
mean penetration ratio based on AUC [4]: 53%

t1/2 (terminal half-life) ([5]; ELF, same regimen): 61.8 min
half-life ([5]; both sexes, human, ELF, intravenous, ELF, same regimen): 60 min
concentration at 0.5 h ([5]; both sexes, human, ELF, intravenous, same regimen, 0.5 h after last dose, n=4, read-out: concn in ELF, GM): 32.1 µM
concentration at 1 h ([5]; both sexes, human, ELF, intravenous, same regimen, 1 h after last dose, n=4, read-out: concn in ELF, GM): 20.3 µM
concentration at 1.5 h ([5]; both sexes, human, ELF, intravenous, same regimen, 1.5 h after last dose, n=4, read-out: concn in ELF, GM): 16.5 µM
concentration at 3 h ([5]; both sexes, human, ELF, intravenous, same regimen, 3 h after last dose, n=4, read-out: concn in ELF, GM): 5.99 µM
Kp ([5]; both sexes, human, ELF/plasma, intravenous, calculated as 100 · ELF AUC0–∞/plasma AUC0–∞/0.8, adjusted for protein binding (80% unbound in plasma, 100% free in ELF), read-out: Adjusted ELF/plasma AUC0–∞ ratio): 0.55
Kp ([5]; both sexes, human, ELF/plasma, intravenous, calculated as 100 · ELF AUC0–∞/plasma AUC0–∞, mean profiles, read-out: ELF/plasma AUC0–∞ ratio): 0.442
Kp ([5]; both sexes, human, ELF/plasma, intravenous, same regimen, 0.5 to 3 h after last dose, read-out: GMRs for ELF/plasma concentrations, range across time points): 0.32 to 0.55
Kp at 1 h ([5]; both sexes, human, ELF/plasma, intravenous, same regimen, 1.0 h after last dose, n=4, read-out: ELF/plasma concn GMR (90% CI)): 0.36
Kp at 1.5 h ([5]; both sexes, human, ELF/plasma, intravenous, same regimen, 1.5 h after last dose, n=4, read-out: ELF/plasma concn GMR (90% CI)): 0.55
Kp at 3 h ([5]; both sexes, human, ELF/plasma, intravenous, same regimen, 3.0 h after last dose, n=4, read-out: ELF/plasma concn GMR (90% CI)): 0.5
Kp at 0.5 h ([5]; both sexes, human, ELF/plasma, iv, healthy subjects, relebactam 250 mg with imipenem-cilastatin 500 mg IV every 6 h, 5 doses, 0.5 h after last dose, n=4, read-out: ELF/plasma concn GMR (90% CI)): 0.32
AUC(0-inf) [5, 9]: 57.4 µM·h
Cmax [5, 9]: 32.6 µM
Tmax [5, 9]: 30 min
AUC(0-t) [5, 9]: 48.4 µM·h
AUC(0-inf) [5, 10]: 130 µM·h
Cmax [5, 10]: 99.6 µM
Tmax [5, 10]: 30 min
AUC(0-t) [5, 10]: 114 µM·h
half-life ([5]; both sexes, human, plasma, intravenous, plasma, same regimen): 60 min
Adjusted ELF/plasma AUC0–∞ ratio ([5]; calculated as 100 · ELF AUC0–∞/plasma AUC0–∞/0.8, adjusted for protein binding (80% unbound in plasma, 100% free in ELF)): 55.2%
t1/2 (terminal half-life) ([5]; plasma, same regimen): 57 min
concentrations in AC (alveolar cells) ([5]; same regimen): below the limit of quantitation
Structure (SMILES): C[C@@H](O)[C@H]1C(=O)N2C(C(=O)O)=C(SCCN=CN)C[C@H]12 [imipenem]
concentrations in AC (alveolar cells) ([5]; same regimen, listed as Imipenem): undetectable in the majority of patients; also recorded: not detected
unbound in plasma (free fraction) [6]: 80%

Structure (SMILES): O=C(O)[C@H]1/C(=C/CO)O[C@@H]2CC(=O)N21 [clavulanate]
concentrations in ELF relative to those in plasma [1]: less than 20%

Structure (SMILES): C[C@]1(Cn2ccnn2)[C@H](C(=O)O)N2C(=O)C[C@H]2S1(=O)=O [tazobactam]
ELF/plasma AUC ratio [2]: 44%
mean concentrations in ELF relative to total concentrations in plasma [7]: ~91%

Structure (SMILES): C[C@@H](O)[C@H]1C(=O)N2C(C(=O)O)=C(S[C@@H]3CN[C@H](C(=O)N(C)C)C3)[C@H](C)[C@H]12 [meropenem]
mean penetration ratio based on AUC [4]: 63%
ELF/plasma concentration ratio estimated by population modeling [8]: 30%
